This passage reports T/C results from PubChem BioAssay AID328 (DTP/NCI, 2004).

Values joined by “and” are separate entries in the source; they are usually repeats but may differ in a detail not shown here. Equal values may be shown once. Inconclusive results and toxic doses are left out.

This test relates to BDF1 mice, P388 leukemia ip, median survival T/C. Kind of test: NCI In Vivo Anticancer Drug Screen. Data for tumor model P388 Leukemia (intraperitoneal) in B6D2F1 (BDF1) mice. The conditions noted are these: endpoint: median survival time, higher = longer survival. How it is done:
The antitumor activity of compounds was measured in mice bearing transplantable tumors. Survival or tumor size were measured and the results are expressed as the measurement made in the treated group (T) divided by the measurement made in the vehicle treated control group (C). The tumor model used in this assay is P388 Leukemia (intraperitoneal) in B6D2F1 (BDF1) mice

The mark [1] stands for this setting: dose: 100.0 mg/kg/injection, schedule: Q01DX009 (ip), vehicle: saline with Tween-80.
The mark [2] stands for this setting: dose: 200.0 mg/kg/injection, schedule: Q01DX009 (ip), vehicle: saline with Tween-80.
Where [3] appears, read: dose: 400.0 mg/kg/injection, schedule: Q01DX009 (ip), vehicle: saline with Tween-80.

Take `Nc1ccc2nc3ccc(N)cc3[n+](-c3ccccc3)c2c1`: the T/C was 100 % of control (dose: 0.12 mg/kg/injection, schedule: Q01DX009 (ip), vehicle: saline); 110 % of control (dose: 0.25 mg/kg/injection, schedule: Q01DX009 (ip), vehicle: saline); 110 % of control (dose: 0.5 mg/kg/injection, schedule: Q01DX009 (ip), vehicle: saline); 150 % of control (dose: 1.0 mg/kg/injection, schedule: Q03HX024 (ip), vehicle: saline); 116 % of control (dose: 1.13 mg/kg/injection, schedule: Q01DX009 (ip), vehicle: saline); 113 % of control (dose: 1.56 mg/kg/injection, schedule: Q01DX009 (ip), vehicle: saline). The T/C by setting is: (dose: 2.0 mg/kg/injection, schedule: Q01DX009 (sc), vehicle: saline) 108 % of control; (dose: 2.0 mg/kg/injection, schedule: Q03HX024 (ip), vehicle: saline) 155 % of control; (dose: 4.0 mg/kg/injection, schedule: Q01DX009 (ip), vehicle: saline) 153 % of control; (dose: 4.0 mg/kg/injection, schedule: Q01DX009 (sc), vehicle: saline) 103 % of control; (dose: 4.0 mg/kg/injection, schedule: Q03HX016 (ip), vehicle: saline) 153 % of control; (dose: 4.0 mg/kg/injection, schedule: Q03HX024 (ip), vehicle: saline) 156 % of control. Also, the T/C is, setting by setting: (dose: 4.0 mg/kg/injection, schedule: Q04DX003 (sc), vehicle: saline) 101 % of control; (dose: 6.0 mg/kg/injection, schedule: Q01DX009 (ip), vehicle: saline) 166 % of control; (dose: 6.25 mg/kg/injection, schedule: Q01DX009 (ip), vehicle: saline) 154 % of control; (dose: 8.0 mg/kg/injection, schedule: Q01DX009 (ip), vehicle: saline) 155 % of control and 173 % of control; (dose: 8.0 mg/kg/injection, schedule: Q01DX009 (oral), vehicle: saline) 95 % of control; (dose: 8.0 mg/kg/injection, schedule: Q01DX009 (sc), vehicle: saline) 106 % of control. Besides, the T/C is 103 % of control (dose: 8.0 mg/kg/injection, schedule: Q04DX003 (sc), vehicle: saline); 123 % of control (dose: 8.0 mg/kg/injection, schedule: Q08DX002 (ip), vehicle: saline); 150 % of control (dose: 9.0 mg/kg/injection, schedule: Q01DX009 (ip), vehicle: saline); 154 % of control (dose: 9.3 mg/kg/injection, schedule: Q01DX009 (ip), vehicle: saline); 182 % of control (dose: 16.0 mg/kg/injection, schedule: Q01DX009 (ip), vehicle: saline); 105 % of control (dose: 16.0 mg/kg/injection, schedule: Q01DX009 (oral), vehicle: saline). In addition, the T/C is, setting by setting: (dose: 16.0 mg/kg/injection, schedule: Q01DX009 (sc), vehicle: saline) 96 % of control; (dose: 16.0 mg/kg/injection, schedule: Q04DX003 (oral), vehicle: saline) 99 % of control; (dose: 16.0 mg/kg/injection, schedule: Q04DX003 (sc), vehicle: saline) 106 % of control; (dose: 16.0 mg/kg/injection, schedule: Q08DX002 (ip), vehicle: saline) 122 % of control; (dose: 18.0 mg/kg/injection, schedule: Q01DX009 (ip), vehicle: saline) 154 % of control and 168 % of control and 195 % of control; (dose: 25.0 mg/kg/injection, schedule: Q04DX003 (ip), vehicle: saline) 175 % of control. The T/C was 99 % of control (dose: 32.0 mg/kg/injection, schedule: Q01DX009 (oral), vehicle: saline); 105 % of control (dose: 32.0 mg/kg/injection, schedule: Q01DX009 (sc), vehicle: saline); 156 % of control (dose: 32.0 mg/kg/injection, schedule: Q04DX003 (ip), vehicle: saline); 105 % of control (dose: 32.0 mg/kg/injection, schedule: Q04DX003 (oral), vehicle: saline); 97 % of control (dose: 32.0 mg/kg/injection, schedule: Q04DX003 (sc), vehicle: saline); 150 % of control and 170 % of control (dose: 33.0 mg/kg/injection, schedule: Q04DX003 (ip), vehicle: saline). Further, the T/C was 175 % of control and 180 % of control (dose: 50.0 mg/kg/injection, schedule: Q04DX003 (ip), vehicle: saline); 102 % of control (dose: 64.0 mg/kg/injection, schedule: Q01DX009 (oral), vehicle: saline); 101 % of control (dose: 64.0 mg/kg/injection, schedule: Q04DX003 (oral), vehicle: saline); 101 % of control (dose: 64.0 mg/kg/injection, schedule: Q04DX003 (sc), vehicle: saline); 165 % of control (dose: 75.0 mg/kg/injection, schedule: Q04DX003 (ip), vehicle: saline); 107 % of control (dose: 128.0 mg/kg/injection, schedule: Q01DX009 (oral), vehicle: saline). Besides, the T/C (dose: 128.0 mg/kg/injection, schedule: Q04DX003 (oral), vehicle: saline) was 101 % of control and the T/C (dose: 256.0 mg/kg/injection, schedule: Q04DX003 (oral), vehicle: saline) is 100 % of control.
Turning to `O=C(O)c1cc(-c2ccccc2)[nH]c1-c1ccccc1`, the T/C (dose: 50.0 mg/kg/injection, schedule: Q01DX009 (ip), vehicle: saline) is 90 % of control.
Consider `COc1cccc2c1C(=O)c1c(O)c3c(c(O)c1C2=O)CC(O)(/C(C)=N/NC(=O)CCCCCCC(=O)N/N=C(\C)C1(O)Cc2c(O)c4c(c(O)c2C(OC2CC(N)C(O)C(C)O2)C1)C(=O)c1c(OC)cccc1C4=O)CC3OC1CC(N)C(O)C(C)O1` (configuration not stated), for which the T/C runs as follows: (dose: 2.0 mg/kg/injection, schedule: Q01DX009 (ip), vehicle: water) 165 % of control; (dose: 4.0 mg/kg/injection, schedule: Q01DX009 (ip), vehicle: water) 201 % of control.
On to `Cc1ccc(C)c(-n2nnc3ccccc3c2=O)c1`, for which the T/C was 100 % of control under setting [1]; 100 % of control (dose: 100.0 mg/kg/injection, schedule: Q04DX003 (ip), vehicle: saline with Tween-80); 86 % of control under setting [2]; 90 % of control (dose: 200.0 mg/kg/injection, schedule: Q04DX003 (ip), vehicle: saline with Tween-80); 100 % of control under setting [3]; 100 % of control (dose: 400.0 mg/kg/injection, schedule: Q04DX003 (ip), vehicle: saline with Tween-80).
Take `O=C(OCCO)c1ccccc1O`: the T/C (dose: 100.0 mg/kg/injection, schedule: Q01DX009 (ip), vehicle: saline) was 107 % of control; the T/C (dose: 200.0 mg/kg/injection, schedule: Q01DX009 (ip), vehicle: saline) is 115 % of control; the T/C (dose: 400.0 mg/kg/injection, schedule: Q01DX009 (ip), vehicle: saline) was 100 % of control.
Consider `CCOC(=O)N(CC)c1ccccc1`, for which the T/C by setting is: (dose: 100.0 mg/kg/injection, schedule: Q04DX003 (ip), vehicle: Klucel (hydroxypropylcellulose) (HPC)) 90 % of control; (dose: 200.0 mg/kg/injection, schedule: Q04DX003 (ip), vehicle: Klucel (hydroxypropylcellulose) (HPC)) 104 % of control; (dose: 400.0 mg/kg/injection, schedule: Q04DX003 (ip), vehicle: Klucel (hydroxypropylcellulose) (HPC)) 100 % of control.
Take `CCN(CC)S(=O)(=O)c1ccc(-c2cc(Cl)c3cc(S(=O)(=O)F)ccc3n2)cc1`: the T/C was 110 % of control under setting [1], 90 % of control under setting [2] and 100 % of control under setting [3].
